From the supplement of paper PMC10307832

Legend:
Assay in all cases: relative viability (nuclei count vs DMSO), 5 days (fraction); higher = more cells survive
[1] = compound: C1=CC=C(C(=C1)C2=CC=C(C=C2)C3=CSC4=C3C(=C(C(=O)N4)C#N)O)O + COc1cccc2cc(-c3nc([C@H]4CC[C@H](C(=O)O)CC4)n4ncnc(N)c34)[nH]c12 [OSI-027] (partner 0.5 µM)
In short: (§1)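 After 5 days of treatment, lung cancer cells in 1536-well plates were fixed and stained in a single step (final 0.05% Triton X-100, 1% formaldehyde, 1 ug/ml Hoechst) and their nuclei counted on 4× images. Treatment had been applied by pin tool the day after seeding as one drug alone or as a fixed anchor-drug dose with five library-drug doses (not always all listed) in √10 steps. Relative viability is the nuclei count of treated wells divided by that of vehicle wells, and values are medians of duplicate plates.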

TGX 221 + OSI-027 = compound: CC1=CN2C(=O)C=C(N=C2C(=C1)C(C)NC3=CC=CC=C3)N4CCOCC4 [TGX 221] + COc1cccc2cc(-c3nc([C@H]4CC[C@H](C(=O)O)CC4)n4ncnc(N)c34)[nH]c12 [OSI-027] (partner 0.5 µM)
In short: as §1

[2] = compound: C1=CC=C(C(=C1)C2=CC=C(C=C2)C3=CSC4=C3C(=C(C(=O)N4)C#N)O)O + O=C(CCCCCCC(=O)Nc1ccccc1)NO [Vorinostat] (partner 1 µM)
In short: as §1

Ricolinostat + Alpelisib = compound: O=C(CCCCCCNC(=O)c1cnc(N(c2ccccc2)c2ccccc2)nc1)NO [Ricolinostat] + Cc1nc(NC(=O)N2CCC[C@H]2C(N)=O)sc1-c1ccnc(C(C)(C)C(F)(F)F)c1 [Alpelisib] (partner 2 µM)
In short: as §1

| Cell Line | relative viability ([1]; first compound 0.08 µM) | relative viability ([1]; first compound 0.253 µM) | relative viability ([1]; first compound 0.8 µM) | relative viability ([1]; first compound 2.53 µM) | relative viability ([1]; first compound 8 µM) | relative viability (TGX 221 + OSI-027; first compound 0.08 µM) | relative viability (TGX 221 + OSI-027; first compound 0.253 µM) | relative viability (TGX 221 + OSI-027; first compound 0.8 µM) | relative viability (TGX 221 + OSI-027; first compound 2.53 µM) | relative viability (TGX 221 + OSI-027; first compound 8 µM) | relative viability ([2]; first compound 0.08 µM) | relative viability ([2]; first compound 0.253 µM) | relative viability ([2]; first compound 0.8 µM) | relative viability ([2]; first compound 2.53 µM) | relative viability ([2]; first compound 8 µM) | relative viability (Ricolinostat + Alpelisib; first compound 0.08 µM) | relative viability (Ricolinostat + Alpelisib; first compound 0.253 µM) | relative viability (Ricolinostat + Alpelisib; first compound 0.8 µM) | relative viability (Ricolinostat + Alpelisib; first compound 2.53 µM) |
| --- | --- | --- | --- | --- | --- | --- | --- | --- | --- | --- | --- | --- | --- | --- | --- | --- | --- | --- | --- |
| PC-14 | 0.924 | 0.986 | 0.874 | 0.978 | 0.46 | 0.707 | 0.791 | 0.908 | 1.05 | 0.654 | 0.64 | 0.863 | 0.563 | 0.71 | 0.567 | 0.821 | 0.903 | 0.917 | 0.66 |
| RERF-LC-KJ | 0.562 | 0.755 | 0.561 | 0.551 | 0.457 | 0.567 | 0.598 | 0.593 | 0.574 | 0.534 | 0.639 | 0.763 | 0.751 | 0.714 | 0.544 | 0.668 | 0.972 | 0.754 | 0.766 |
| SK-LU-1 | 0.342 | 0.369 | 0.276 | 0.397 | 0.3 | 0.31 | 0.331 | 0.288 | 0.273 | 0.298 | 0.737 | 0.727 | 0.655 | 0.761 | 0.671 | 0.947 | 0.914 | 0.84 | 0.708 |
| SK-MES-1 | 0.711 | 0.666 | 0.562 | 0.67 | 0.419 | 0.552 | 0.53 | 0.592 | 0.532 | 0.473 | 1.1 | 1.17 | 0.911 | 1.06 | 0.923 | 0.541 | 0.761 | 0.805 | 0.591 |
| SW 1573 | 0.618 | 0.821 | 0.657 | 0.54 | 0.391 | 0.511 | 0.569 | 0.525 | 0.513 | 0.494 | 0.701 | 0.723 | 0.716 | 0.76 | 0.59 | 0.506 | 0.862 | 0.751 | 0.832 |
| UMC-11 | 0.429 | 0.641 | 0.503 | 0.446 | 0.437 | 0.502 | 0.438 | 0.482 | 0.458 | 0.456 |  | 0.352 | 0.409 | 0.381 | 0.412 | 0.882 | 1.09 | 0.961 | 0.856 |
